Source: patent publication US7718641B2, “Pyrrolo [3,4-H] isoquinoline compounds and methods for modulating gated ion channels” (Aros Pharma ApS, priority 2005, dated 2010)

Tests used:
formalin-induced pain = test: Formalin test, model of acute tonic pain; type: in vivo, rat; conditions: Automated Nociception Analyser, n=6-8
Description: Male Sprague-Dawley rats are housed together in groups of three animals under standard conditions with unrestricted access to food and water. All experiments are conducted according to the ethical guidelines for investigations of experimental pain in conscious animals (Zimmerman, 1983)
Assessment of formalin-induced flinching behavior in normal, uninjured rats (body weight 150-180 g) was made with the use of an Automated Nociception Analyser (University of California, San Diego, USA). Briefly, this involved placing a small C-shaped metal band (10 mm wide×27 mm long) on the hindpaw of the rat to be tested. The rats (four rats were included in each testing session) were then placed in a cylindrical plexiglass observation chamber (diameter 30.5 cm and height 15 cm) for 20 min for adaptation purposes prior to being administered drug or vehicle according to the experimental paradigm being followed. After adaptation, individual rats were then gently restrained and formalin (5% in saline, 50 μl, s.c.) was injected into the plantar surface of the hindpaw using a 27G needle. Rats were then returned to their separate observation chambers, each of which were in turn situated upon an enclosed detection device consisting of two electromagnetic coils designed to produce an electromagnetic field in which movement of the metal band could be detected. The analogue signal was then digitised and a software algorithm (LabView) applied to enable discrimination of flinching behaviour from other paw movements. A sampling interval of 1 min was used and on the basis of the resulting response patterns 5 phases of nociceptive behaviour were identified and scored: first phase (P1; 0-5 min), interphase (Int; 6-15 min), second phase (P2; […]), phase 2A (P2A; 16-40 min) and phase 2B (P2B; 41-60 min).
Nociceptive behavior was also determined manually every 5 min by measuring the amount of time spent in each of four behavioral categories: 0, treatment of the injected hindpaw is indistinguishable from that of the contralateral paw; 1, the injected paw has little or no weight placed on it; 2, the injected paw is elevated and is not in contact with any surface; 3, the injected paw is licked, bitten, or shaken. A weighted nociceptive score, ranging from 0 to 3 was calculated by multiplying the time spent in each category by the category weight, summing these products, and dividing by the total time for each 5 min block of time. (Coderre et al., Pain 1993; 54: 43). On the basis of the resulting response patterns, […] of nociceptive behavior were identified and scored: first phase (P1; 0-5 min), interphase (Int; 6-15 min), second phase (P2; […]), phase 2A (P2A; 16-40 min) and phase 2B (P2B; 41-60 min). […]

hASIC1a [1] = biological target: T1, hASIC1a (Homo sapiens, UniProt P78348); test: Calcium-imaging (FLIPR, Fluo-4) of acid (MES)-induced calcium response in ASIC1a expressing HEK293 cells; type: cell-based; design: expressed in transfected cells; host or cells: HEK293; conditions: for IC50: calcium mobilization assay, MES-induced calcium response, HEK293, n=3-7; for inhibitory effect on acid-induced hASIC1a activity (dose-response curve): HEK293 transfected with hASIC1a, intracellular calcium, increasing concentrations
T1 sequence (P78348 1-528): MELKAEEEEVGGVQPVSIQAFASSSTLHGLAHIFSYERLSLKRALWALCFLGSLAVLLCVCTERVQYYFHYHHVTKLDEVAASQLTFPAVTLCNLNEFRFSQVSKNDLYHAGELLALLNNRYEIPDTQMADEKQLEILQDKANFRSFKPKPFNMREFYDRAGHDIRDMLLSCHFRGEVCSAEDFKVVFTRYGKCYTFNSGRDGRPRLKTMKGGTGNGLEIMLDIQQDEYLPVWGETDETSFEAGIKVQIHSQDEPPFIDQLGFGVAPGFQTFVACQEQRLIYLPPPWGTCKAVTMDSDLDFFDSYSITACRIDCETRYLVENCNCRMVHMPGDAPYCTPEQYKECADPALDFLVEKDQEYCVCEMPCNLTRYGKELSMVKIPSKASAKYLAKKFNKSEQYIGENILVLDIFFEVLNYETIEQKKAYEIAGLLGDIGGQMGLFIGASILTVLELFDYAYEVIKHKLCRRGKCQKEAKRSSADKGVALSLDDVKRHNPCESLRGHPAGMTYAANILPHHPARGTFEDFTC
Description: ASIC1a expressing HEK293 cells are grown in culture medium (DMEM with 10% FBS), in polystyrene culture flasks ([…]) at 37° C. in a humidified atmosphere of 5% CO2. Confluency of cells should be 80-90% on day of plating. Cells are rinsed with 10 ml of PBS and re-suspended by addition of culture medium and trituration with a 25 ml pipette.
The cells are seeded at a density of approximately 1×10^6 cells/ml (100 μl/well) in black-walled, clear bottom, 96-well plates pre-treated with 10 mg/l poly-D-lysin (75 μl/well for ≧30 min). Plated cells were allowed to proliferate for 24 h before loading with dye.
Fluo-4/AM (1 mg, Molecular Probes) is dissolved in 912 μl DMSO. The Fluo-4/AM stock solution (1 mM) is diluted with culture medium to a final concentration of 2 μM (loading solution).
The culture medium is aspirated from the wells, and 50 μl of the Fluo-4/AM loading solution is added to each well. The cells are incubated at 37° C. for 30 min.
After the loading period, the loading solution is aspirated and the cells are washed twice with 100 μl modified Assay Buffer (145 mM NaCl, 5 mM KCl, 5 mM CaCl2, 1 mM MgCl2, 10 mM HEPES, pH 7.4) to remove extracellular dye. Following the second wash, 100 μl modified Assay Buffer is added to each well and the fluorescence is measured in FLIPR™ or FlexStation™ (Molecular Devices, USA), or any other suitable equipment known to the skilled in the art.
Temperature: Room temperature (20-22° C.)
First addition: 50 μl test solution at a rate of 30 μl/sec and a starting height of 100 μl.
Second addition: 50 μl MES solution (20 mM, 5 mM final concentration) at a rate of 35 μl/sec and a starting height of 150 μl.
Reading intervals: pre-incubation—10 sec×7 and 3 sec×3 antagonist phase—3 sec×17 and 10 sec×12
Addition plates (compound test plate and MES plate) are placed on the right and left positions in the FLIPR tray, respectively. Cell plates are placed in the middle position and the ASIC1a program is effectuated. FLIPR will then take the appropriate measurements in accordance with the interval settings above. Fluorescence obtained after stimulation is corrected for the mean basal fluorescence (in modified Assay Buffer).
The MES-induced peak calcium response, in the presence of test substance, is expressed relatively to the MES response alone. Test substances that block the MES-induced calcium response are re-tested in triplicates. Confirmed hits are picked for further characterization by performing full dose-response curves to determine potency of each hit compound as represented by the IC50 values (i.e., the concentration of the test substance which inhibits 50% of the MES-induced calcium response; see, for example, FIGS. 1A, 1B and 1C, and FIGS. 13A and 13B).

hASIC1a [2] = biological target: T1, hASIC1a; test: Whole-cell voltage clamp of pH-evoked response of human ASIC1a stably transfected in CHO cells; type: cell-based; design: expressed in transfected cells; conditions: for effect on proton-gated currents from CHO cells expressing hASIC1a: 1 μM, voltage clamp
Description: FIG. 3 illustrates the inhibitory effect of Compound A on acid-evoked activation of human ASIC1a stably transfected in CHO cells. […] In this example, the size of the pH-evoked response was determined by measuring the area under the curve of the response (total charge transfer) and normalized to the control response. FIG. 3B depicts an example of an hASIC1a current (whole cell voltage clamp, −60 mV) evoked by a pH 6.8-buffered solution (from pH 7.4) in the presence or absence of Compound A (3 μM).
These endogenous proton-activated inward currents were recorded in the presence and absence of Compound J (1 μM) or Compound K (1 μM) using the whole cell configuration of the patch clamp method (voltage clamp mode).
All experiments are performed at room temperature (20-25° C.) in voltage clamp using conventional whole cell patch clamp methods (Neher, E., et al. (1978) Pfluegers Arch 375:219-228).
Coverslips with the cells are transferred to a 15 μl experimental chamber mounted on the stage of an inverted microscope (IMT-2, Olympus) supplied with Nomarski optics. Cells are continuously superfused with extracellular saline at a rate of 2.5 ml/min. After giga-seal formation, the whole cell configuration is attained by suction. The cells are held at a holding voltage of −60 mV and at the start of each experiment the current is continuously measured for 45 s to ensure a stable baseline. Solutions of low pH (<7) are delivered to the chamber through a custom-made gravity-driven flowpipe, the tip of which is placed approximately 50 μm from the cell. Application is triggered when the tubing connected to the flowpipe is compressed by a valve controlled by the Pulse-software. Initially, low pH (in general, pH 6.5) is applied for 5 s every 60 s. The sample interval during application is 5501s. After stable responses are obtained, the extracellular saline as well as the low-pH solution are switched to solutions containing the compound to be tested. The compound is present until responses of a repeatable amplitude are achieved. Current amplitudes are measured at the peak of the responses, and effect of the compounds is calculated as the amplitude at compound equilibrium divided by the amplitude of the current evoked by the pulse just before the compound was included.
The following salt solutions are used: extracellular solution (mM): NaCl (140), KCl (4), CaCl2 (2), MgCl2 (4), HEPES (10, pH 7.4); intracellular solution (mM): KCl (120), KOH (31), MgCl2 (1.785), EGTA (10), HEPES (10, pH 7.2). In general, compounds for testing are dissolved in 50% DMSO at 500 fold the highest concentration used.
Similar findings are shown in FIG. 3 with the human ASIC1a stably transfected in CHO cells. FIG. 3A compares the dose-response relationship between Compound A and amiloride [determined by measuring the area under the curve of the response (total charge transfer) and normalized to the control response]. […] FIGS. 14A and 14B show similar results for Compounds J and K.

| SMILES | IC50 (hASIC1a [1]) | inhibitory effect on acid-induced hASIC1a activity (dose-response curve) (hASIC1a [1]) | further results |
| --- | --- | --- | --- |
| CCN1CCc2c(-c3cc(F)ccc3OC)cc3c(c2C1)NC(=O)/C3=N/O [Compound B, 5-(5-fluoro-2-methoxyphenyl)-6,7,8,9-tetrahydro-3-(hydroxyimino)-8-ethyl-1H-pyrrolo[3,2-h]isoquinoline-2(3H)-one] | 0.02 to 0.03 µM |  | pain intensity as evaluated by the flinching behavior (formalin-induced pain): dose-dependent reduction of the pain intensity |
| COc1ccc(Cl)cc1-c1cc2c(c3c1CCN(C)C3)NC(=O)/C2=N/O [Compound C, 5-(5-chloro-2-methoxyphenyl)-6,7,8,9-tetrahydro-3-(hydroxyimino)-8-methyl-1H-pyrrolo[3,2-h]isoquinoline-2(3H)-one] | 0.2 to 0.3 µM |  |  |
| Cc1cc(C)cc(-c2cc3c(c4c2CCN(C)C4)NC(=O)/C3=N/O)c1 [Compound D, 5-(3,5-dimethylphenyl)-6,7,8,9-tetrahydro-3-(hydroxyimino)-8-methyl-1H-pyrrolo[3,2-h]isoquinoline-2(3H)-one] | 0.25 to 0.35 µM |  |  |
| CCN1CCc2c(-c3cc(C)cc(C)c3)cc3c(c2C1)NC(=O)/C3=N/O [Compound E, 5-(3,5-dimethylphenyl)-6,7,8,9-tetrahydro-3-(hydroxyimino)-8-ethyl-1H-pyrrolo[3,2-h]isoquinoline-2(3H)-one] |  | dose-dependently inhibit |  |
| CCN1CCc2c(-c3cc(C)ccc3C)cc3c(c2C1)NC(=O)/C3=N/O [Compound F, 5-(2,5-dimethylphenyl)-6,7,8,9-tetrahydro-3-(hydroxyimino)-8-ethyl-1H-pyrrolo[3,2-h]isoquinoline-2(3H)-one] |  | dose-dependently inhibit |  |
| CCN1CCc2c(-c3cc(Cl)ccc3OC)cc3c(c2C1)NC(=O)/C3=N/O [Compound G, 5-(5-chloro-2-methoxyphenyl)-6,7,8,9-tetrahydro-3-(hydroxyimino)-8-ethyl-1H-pyrrolo[3,2-h]isoquinoline-2(3H)-one] |  | dose-dependently inhibit |  |
| CCN1CCc2c(-c3ccccc3OC)cc3c(c2C1)NC(=O)/C3=N/O [Compound J, 8-ethyl-5-(2-methoxy-phenyl)-6,7,8,9-tetrahydro-1H-pyrrolo[3,2-h]isoquinoline-2,3-dione 3-oxime] | 0.1 to 0.7 µM |  | effect on proton-gated currents from CHO cells expressing hASIC1a (hASIC1a [2]): inhibitory effects |
| CCOc1ccccc1-c1cc2c(c3c1CCN(CC)C3)NC(=O)/C2=N/O [Compound K, 5-(2-ethoxy-phenyl)-8-ethyl-6,7,8,9-tetrahydro-1H-pyrrolo[3,2-h]isoquinoline-2,3-dione 3-oxime] | 0.3 to 1.7 µM |  | effect on proton-gated currents from CHO cells expressing hASIC1a (hASIC1a [2]): inhibitory effects |
| N=C(N)NC(=O)c1nc(Cl)c(N)nc1N [amiloride, reference compound] |  |  | effect on size of human ASIC1a pH-evoked response (area under the curve, total charge transfer, normalized to control) (hASIC1a [2]; CHO cells, -60 mV, pH 6.8 from pH 7.4): reduce the human ASIC1a pH-evoked response in a dose-dependent manner |
